From patent US6864271B2, “Synergistic combinations including N-acylated 4-hydroxyphenylamine derivatives” (The Foundation for the LSU Health Sciences Center, priority 2002, dated 2005)

Columns and labels:
mice [1] = test: abdominal stretch assay (i.p. acetic acid); type: in vivo, mouse; conditions: oral, FIG. 1; for number of abdominal stretches (percentage of control): 55 min before i.p. 10 ml/kg 0.4% acetic acid, counted 10 min
C57/b16 mice [2] = test: hepatotoxicity study, transaminase activity after oral dosing; conditions: 24 hours after oral dose in corn oil; acetaminophen/SCP-1 3.7 mmole/kg, codeine 50 mg/kg; FIG. 3
[3] = background statement; cited from earlier work
[4] = background statement; cited from earlier work; remark: listed apart in the source
mice [5] = conditions: background statement; cited from earlier work
C57/b16 mice [6] = conditions: prior work (Paul et al., 1998; Bazan patents); cited from earlier work
mice [7] = conditions: cited from earlier work

| SMILES | number of abdominal stretches (percentage of control) (mice [1]) | GPT activity in serum (C57/b16 mice [2]) | analgesic potency compared with acetaminophen (mice [1]; abdominal stretch assay, mice) | potency compared with acetaminophen, Freund's adjuvant-induced inflammation [3] | potency compared with acetaminophen, formalin [4] | potency compared with acetaminophen, abdominal stretch (mice [5]) | hepatotoxicity (C57/b16 mice [6]) | toxicity compared with acetaminophen (mice [7]; Paul et al., 1998) | LD50 (mice [7]; mice) |
| --- | --- | --- | --- | --- | --- | --- | --- | --- | --- |
| COc1ccc2c3c1O[C@H]1[C@@H](O)C=C[C@H]4[C@@H](C2)N(C)CC[C@@]341 [codeine, reference compound] | dose-dependent decrease | neither SCP-1 nor codeine, nor the combination of both, produced any significant increase |  |  |  |  |  |  |  |
| O=C(CN1C(=O)c2ccccc2S1(=O)=O)Nc1ccc(O)cc1 [SCP-1] | dose-dependent decrease | neither SCP-1 nor codeine, nor the combination of both, produced any significant increase | significantly greater than acetaminophen | more potent | more potent | more potent | lower in hepatotoxicity | lower in toxicity |  |
| CC(=O)Nc1ccc(O)cc1 [acetaminophen, reference compound] | dose-dependent decrease |  |  |  |  |  |  |  | 3.7 mmol/kg |
